Publication PMC6704710, “Preclinical evaluation of 3D185, a novel potent inhibitor of FGFR1/2/3 and CSF-1R, in FGFR-dependent and macrophage-dominant cancer models” (Journal of Experimental & Clinical Cancer Research : CR, 2019)

Assays:
Test in all cases: Eurofins kinase panel
Format in all cases: biochemical
Conditions in all cases: read-out: Inhibition rate (%)
ALK4(h) = molecular target: T1, ALK4(h) (Homo sapiens, UniProt P36896)
T1 construct: purchased Eurofins (KinaseProfiler)
T1 sequence (P36896 24-505): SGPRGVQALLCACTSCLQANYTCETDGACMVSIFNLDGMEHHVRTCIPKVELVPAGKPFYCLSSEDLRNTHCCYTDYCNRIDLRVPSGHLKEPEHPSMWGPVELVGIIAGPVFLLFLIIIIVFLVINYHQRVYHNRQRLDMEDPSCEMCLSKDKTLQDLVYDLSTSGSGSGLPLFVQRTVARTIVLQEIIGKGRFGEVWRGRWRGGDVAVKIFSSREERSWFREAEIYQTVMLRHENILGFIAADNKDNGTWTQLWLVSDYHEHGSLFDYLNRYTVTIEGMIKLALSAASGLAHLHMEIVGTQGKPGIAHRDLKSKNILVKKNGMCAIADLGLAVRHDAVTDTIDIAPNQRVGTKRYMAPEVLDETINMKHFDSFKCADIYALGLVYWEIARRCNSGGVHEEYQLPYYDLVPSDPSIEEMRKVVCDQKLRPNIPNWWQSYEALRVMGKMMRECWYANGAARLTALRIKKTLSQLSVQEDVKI

Blk(h) = molecular target: T2, Blk(h) (Homo sapiens, UniProt P51451)
T2 construct: purchased Eurofins (KinaseProfiler)

BrSK1(h) = molecular target: T3, BrSK1(h) (Homo sapiens, UniProt Q8TDC3)
T3 construct: purchased Eurofins (KinaseProfiler)
T3 sequence (Q8TDC3 1-778): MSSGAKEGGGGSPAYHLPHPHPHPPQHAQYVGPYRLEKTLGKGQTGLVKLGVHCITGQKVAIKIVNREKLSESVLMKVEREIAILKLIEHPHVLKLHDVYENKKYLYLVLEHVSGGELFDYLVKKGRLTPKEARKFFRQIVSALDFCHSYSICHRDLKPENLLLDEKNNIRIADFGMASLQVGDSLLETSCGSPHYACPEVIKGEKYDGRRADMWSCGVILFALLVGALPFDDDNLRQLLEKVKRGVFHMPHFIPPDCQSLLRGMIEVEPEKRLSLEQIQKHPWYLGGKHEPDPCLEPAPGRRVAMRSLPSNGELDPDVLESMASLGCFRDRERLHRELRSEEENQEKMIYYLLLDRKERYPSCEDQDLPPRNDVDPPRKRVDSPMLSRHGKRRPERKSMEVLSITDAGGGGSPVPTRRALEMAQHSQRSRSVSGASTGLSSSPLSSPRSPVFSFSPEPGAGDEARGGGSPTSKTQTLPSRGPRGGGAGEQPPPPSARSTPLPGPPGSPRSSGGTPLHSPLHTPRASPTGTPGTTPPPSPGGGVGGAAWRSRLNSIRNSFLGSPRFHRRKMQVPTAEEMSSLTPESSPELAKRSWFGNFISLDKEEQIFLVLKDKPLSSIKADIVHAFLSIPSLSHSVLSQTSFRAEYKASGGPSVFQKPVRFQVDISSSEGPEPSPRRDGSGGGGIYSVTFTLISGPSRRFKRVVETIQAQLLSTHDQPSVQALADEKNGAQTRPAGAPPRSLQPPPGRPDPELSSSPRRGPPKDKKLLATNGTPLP

CLK1(h) = molecular target: T4, CLK1(h) (Homo sapiens, UniProt P49759)
T4 construct: purchased Eurofins (KinaseProfiler)

Fgr(h) = molecular target: T5, Fgr(h) (Homo sapiens, UniProt P09769)
T5 construct: purchased Eurofins (KinaseProfiler)

NEK4(h) = molecular target: T6, NEK4(h) (Homo sapiens, UniProt P51957)
T6 construct: purchased Eurofins (KinaseProfiler)

PKBβ(h) = molecular target: T7, PKBβ(h) (Homo sapiens, UniProt P31751)
T7 construct: purchased Eurofins (KinaseProfiler)

PTK5(h) = molecular target: T8, PTK5(h) (Homo sapiens, UniProt P42685)
T8 construct: purchased Eurofins (KinaseProfiler)

Rse(h) = molecular target: T9, Rse(h) (Homo sapiens, UniProt Q06418)
T9 construct: purchased Eurofins (KinaseProfiler)
T9 sequence (Q06418 41-890): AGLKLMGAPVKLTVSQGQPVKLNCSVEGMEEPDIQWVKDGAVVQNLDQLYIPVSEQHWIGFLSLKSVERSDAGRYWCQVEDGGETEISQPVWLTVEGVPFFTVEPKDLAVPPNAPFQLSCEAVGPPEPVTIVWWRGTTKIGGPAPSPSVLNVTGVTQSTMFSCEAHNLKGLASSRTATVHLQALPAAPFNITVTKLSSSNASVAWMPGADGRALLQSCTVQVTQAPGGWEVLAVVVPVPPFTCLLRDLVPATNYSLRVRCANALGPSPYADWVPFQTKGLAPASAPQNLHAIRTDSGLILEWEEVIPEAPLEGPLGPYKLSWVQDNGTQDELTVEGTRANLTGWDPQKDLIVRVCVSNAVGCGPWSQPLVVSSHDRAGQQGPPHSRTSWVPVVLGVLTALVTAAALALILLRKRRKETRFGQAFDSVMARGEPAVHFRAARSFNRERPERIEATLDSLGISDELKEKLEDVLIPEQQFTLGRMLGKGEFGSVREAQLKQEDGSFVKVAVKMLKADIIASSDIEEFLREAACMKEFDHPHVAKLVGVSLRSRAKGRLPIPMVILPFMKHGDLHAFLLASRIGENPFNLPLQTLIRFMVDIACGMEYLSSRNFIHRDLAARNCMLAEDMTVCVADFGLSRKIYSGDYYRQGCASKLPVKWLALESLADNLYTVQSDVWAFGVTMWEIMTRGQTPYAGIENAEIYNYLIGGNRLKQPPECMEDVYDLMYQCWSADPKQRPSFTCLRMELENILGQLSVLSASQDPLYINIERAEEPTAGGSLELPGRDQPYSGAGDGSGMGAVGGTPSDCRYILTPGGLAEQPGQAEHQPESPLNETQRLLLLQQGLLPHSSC

T4 sequence (P49759 whole entry): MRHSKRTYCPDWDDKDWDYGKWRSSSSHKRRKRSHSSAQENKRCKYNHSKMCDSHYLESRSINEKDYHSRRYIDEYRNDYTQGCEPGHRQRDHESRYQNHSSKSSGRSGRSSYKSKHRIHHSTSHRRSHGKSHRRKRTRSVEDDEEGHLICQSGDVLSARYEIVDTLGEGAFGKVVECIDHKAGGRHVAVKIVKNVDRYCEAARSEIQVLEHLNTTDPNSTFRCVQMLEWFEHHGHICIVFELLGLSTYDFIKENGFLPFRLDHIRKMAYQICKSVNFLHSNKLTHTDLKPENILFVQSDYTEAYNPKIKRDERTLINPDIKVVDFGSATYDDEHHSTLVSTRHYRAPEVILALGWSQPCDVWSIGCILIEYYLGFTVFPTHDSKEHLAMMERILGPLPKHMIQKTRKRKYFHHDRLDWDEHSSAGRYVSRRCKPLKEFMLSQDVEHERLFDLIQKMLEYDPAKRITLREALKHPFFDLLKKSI
T6 sequence (P51957 whole entry): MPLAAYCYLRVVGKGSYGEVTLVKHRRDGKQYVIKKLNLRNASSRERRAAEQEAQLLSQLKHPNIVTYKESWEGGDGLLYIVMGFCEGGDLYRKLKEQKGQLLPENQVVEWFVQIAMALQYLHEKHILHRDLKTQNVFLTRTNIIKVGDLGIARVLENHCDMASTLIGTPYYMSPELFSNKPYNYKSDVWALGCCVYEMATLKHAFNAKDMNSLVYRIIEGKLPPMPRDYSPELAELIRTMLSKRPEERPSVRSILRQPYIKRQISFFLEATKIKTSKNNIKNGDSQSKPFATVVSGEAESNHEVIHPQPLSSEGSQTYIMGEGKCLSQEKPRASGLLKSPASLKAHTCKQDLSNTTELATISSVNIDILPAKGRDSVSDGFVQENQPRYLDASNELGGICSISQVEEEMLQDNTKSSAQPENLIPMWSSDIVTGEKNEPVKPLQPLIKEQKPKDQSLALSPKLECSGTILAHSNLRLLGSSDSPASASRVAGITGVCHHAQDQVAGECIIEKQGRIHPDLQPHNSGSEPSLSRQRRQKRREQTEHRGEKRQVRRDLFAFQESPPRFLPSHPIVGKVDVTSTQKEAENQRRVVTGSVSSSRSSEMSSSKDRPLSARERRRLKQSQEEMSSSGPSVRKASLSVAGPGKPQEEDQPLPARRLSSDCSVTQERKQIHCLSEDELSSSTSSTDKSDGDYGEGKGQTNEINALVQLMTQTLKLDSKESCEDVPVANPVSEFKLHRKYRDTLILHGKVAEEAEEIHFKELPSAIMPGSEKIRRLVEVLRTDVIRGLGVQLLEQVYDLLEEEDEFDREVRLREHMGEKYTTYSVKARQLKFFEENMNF
T8 sequence (P42685 whole entry): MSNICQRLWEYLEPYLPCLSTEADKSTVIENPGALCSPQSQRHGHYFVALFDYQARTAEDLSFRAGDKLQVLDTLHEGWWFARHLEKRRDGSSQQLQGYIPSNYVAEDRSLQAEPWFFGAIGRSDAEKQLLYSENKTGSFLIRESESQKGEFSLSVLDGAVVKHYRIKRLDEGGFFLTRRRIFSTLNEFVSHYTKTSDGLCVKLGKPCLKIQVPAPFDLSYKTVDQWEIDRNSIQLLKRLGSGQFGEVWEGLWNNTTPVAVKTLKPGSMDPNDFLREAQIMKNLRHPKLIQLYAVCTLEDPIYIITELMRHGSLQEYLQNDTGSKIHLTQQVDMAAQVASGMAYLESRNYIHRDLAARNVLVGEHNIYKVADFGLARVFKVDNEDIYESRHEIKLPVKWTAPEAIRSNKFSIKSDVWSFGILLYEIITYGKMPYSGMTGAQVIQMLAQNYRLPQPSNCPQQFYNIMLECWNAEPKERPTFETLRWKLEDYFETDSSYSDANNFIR
T5 sequence (P09769 whole entry): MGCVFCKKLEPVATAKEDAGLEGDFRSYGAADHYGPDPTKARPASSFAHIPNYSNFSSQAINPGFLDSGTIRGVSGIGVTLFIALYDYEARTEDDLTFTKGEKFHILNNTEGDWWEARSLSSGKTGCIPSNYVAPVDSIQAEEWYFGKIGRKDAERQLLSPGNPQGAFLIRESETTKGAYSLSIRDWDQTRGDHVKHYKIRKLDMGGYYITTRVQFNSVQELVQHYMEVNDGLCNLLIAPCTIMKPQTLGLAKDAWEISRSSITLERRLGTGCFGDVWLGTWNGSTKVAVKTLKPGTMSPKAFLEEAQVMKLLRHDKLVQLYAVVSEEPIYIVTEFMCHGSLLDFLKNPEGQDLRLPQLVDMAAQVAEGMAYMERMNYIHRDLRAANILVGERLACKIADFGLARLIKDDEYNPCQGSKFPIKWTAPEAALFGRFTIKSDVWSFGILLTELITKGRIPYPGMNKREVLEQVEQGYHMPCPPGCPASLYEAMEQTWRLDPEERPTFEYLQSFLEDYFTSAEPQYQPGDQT
T7 sequence (P31751 whole entry): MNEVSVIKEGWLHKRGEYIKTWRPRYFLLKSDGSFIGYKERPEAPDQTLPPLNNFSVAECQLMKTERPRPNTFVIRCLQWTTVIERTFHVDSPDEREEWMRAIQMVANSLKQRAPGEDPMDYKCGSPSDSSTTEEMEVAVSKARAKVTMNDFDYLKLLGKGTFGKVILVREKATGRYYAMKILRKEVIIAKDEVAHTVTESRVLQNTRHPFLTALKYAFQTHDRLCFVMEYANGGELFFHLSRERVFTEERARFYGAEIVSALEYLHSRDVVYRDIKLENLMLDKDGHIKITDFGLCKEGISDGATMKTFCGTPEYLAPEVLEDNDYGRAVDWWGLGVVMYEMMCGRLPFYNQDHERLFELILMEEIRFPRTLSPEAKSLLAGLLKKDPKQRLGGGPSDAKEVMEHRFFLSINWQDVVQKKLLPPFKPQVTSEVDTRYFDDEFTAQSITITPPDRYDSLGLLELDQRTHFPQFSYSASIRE
T2 sequence (P51451 whole entry): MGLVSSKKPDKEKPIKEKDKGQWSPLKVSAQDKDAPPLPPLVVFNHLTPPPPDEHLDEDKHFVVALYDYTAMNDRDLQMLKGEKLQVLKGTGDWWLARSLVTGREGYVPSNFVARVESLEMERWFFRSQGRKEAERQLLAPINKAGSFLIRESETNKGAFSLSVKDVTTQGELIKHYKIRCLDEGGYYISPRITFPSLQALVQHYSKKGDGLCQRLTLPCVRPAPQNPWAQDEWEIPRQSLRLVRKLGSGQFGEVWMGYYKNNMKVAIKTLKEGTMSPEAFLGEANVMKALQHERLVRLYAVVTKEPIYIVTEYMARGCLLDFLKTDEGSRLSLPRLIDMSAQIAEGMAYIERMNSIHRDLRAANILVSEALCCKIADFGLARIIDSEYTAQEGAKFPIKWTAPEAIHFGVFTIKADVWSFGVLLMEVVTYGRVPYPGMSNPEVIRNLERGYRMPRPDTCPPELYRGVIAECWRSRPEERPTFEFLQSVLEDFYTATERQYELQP

COc1cc(OC)c(Cl)c(-c2ccc3c(NC(=O)c4ccc(N5CCNC(C)(C)C5)cc4)n[nH]c3n2)c1Cl [3D185]
inhibition at 0.01 µM (ALK4(h); 10 nM): -4%
inhibition at 0.1 µM (ALK4(h); 100 nM): -7%
inhibition at 1 µM (ALK4(h); 1000 nM): 5%
inhibition at 0.01 µM (Blk(h); 10 nM): -18%
inhibition at 0.1 µM (Blk(h); 100 nM): 16%
inhibition at 1 µM (Blk(h); 1000 nM): 88%
inhibition at 0.01 µM (BrSK1(h); 10 nM): 13%
inhibition at 0.1 µM (BrSK1(h); 100 nM): 11%
inhibition at 1 µM (BrSK1(h); 1000 nM): 11%
inhibition at 0.01 µM (CLK1(h); 10 nM): -7%
inhibition at 0.1 µM (CLK1(h); 100 nM): -5%
inhibition at 1 µM (CLK1(h); 1000 nM): 7%
inhibition at 0.01 µM (Fgr(h); 10 nM): 11%
inhibition at 0.1 µM (Fgr(h); 100 nM): 44%
inhibition at 1 µM (Fgr(h); 1000 nM): 89%
inhibition at 0.01 µM (NEK4(h); 10 nM): 16%
inhibition at 0.1 µM (NEK4(h); 100 nM): 15%
inhibition at 1 µM (NEK4(h); 1000 nM): 74%
inhibition at 0.01 µM (PKBβ(h); 10 nM): 15%
inhibition at 0.1 µM (PKBβ(h); 100 nM): 29%
inhibition at 1 µM (PKBβ(h); 1000 nM): 30%
inhibition at 0.01 µM (PTK5(h); 10 nM): 19%
inhibition at 0.1 µM (PTK5(h); 100 nM): 64%
inhibition at 1 µM (PTK5(h); 1000 nM): 91%
inhibition at 0.01 µM (Rse(h); 10 nM): 5%
inhibition at 0.1 µM (Rse(h); 100 nM): -2%
inhibition at 1 µM (Rse(h); 1000 nM): 16%
